Laboratory results taken from patent US20070099851A1, “Stable analogues of ribose-1-phosphate and methods for treating diabetes and other metabolic disorders” (priority 2004, published 2007).
Like-named read-outs stand apart in the source and are kept apart here. Marks after values point to notes of the source that are not given here.

Assays:
[1] = target: T1, human purine nucleoside phosphorylase (Homo sapiens, UniProt P00491); conditions: background statement; cited from earlier work
T1 sequence (P00491 1-289): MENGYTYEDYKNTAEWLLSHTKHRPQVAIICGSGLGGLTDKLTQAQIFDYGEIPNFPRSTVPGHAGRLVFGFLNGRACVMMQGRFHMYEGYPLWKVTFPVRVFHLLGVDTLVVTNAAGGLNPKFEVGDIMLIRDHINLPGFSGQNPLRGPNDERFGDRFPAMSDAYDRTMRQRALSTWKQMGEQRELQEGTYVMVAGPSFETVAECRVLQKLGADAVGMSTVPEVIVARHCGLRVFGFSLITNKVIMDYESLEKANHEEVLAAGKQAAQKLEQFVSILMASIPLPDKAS

HL-60, Leukemia = experiment: Anticancer activity, HL-60; type: cell-based
Zucker (fa/fa) rats = experiment: Glucose tolerance test in diabetic Zucker (fa/fa) rats; type: in vivo, rat; conditions: for Blood Glucose at 120 minutes: fasted Zucker (fa/fa) rats, IP glucose 1.5 g/kg
Method: Thirty-six 16 wk old male Zucker (fa/fa) rats were randomly assigned to one of the following groups: • 1. Vehicle (0.9% NaCl) • 2. Metformin—320 mg/kg • 3. Compound 1.1—10 mg/kg Acid • 4. Compound 1.1—100 mg/kg Acid • 5. Compound 3.1—10 mg/kg Ester • 6. Compound 3.1—100 mg/kg Ester
Animals were fasted for 16-18 hr and lightly anesthetized with a mixture of ketamine/xylazine at a dose of 0.5 ml/kg (45 mg/kg ketamine, 5 mg/kg xylazine). Animals received their respective treatments via IP injection (1.5 ml/kg) followed by an IP injection of glucose at 1.5 g/kg. Blood glucose was measured at 0, 30, 60, 90, and 120 minutes post-glucose.

[2] = target: T2, Fructose-1,6-bisphosphatase (Homo sapiens, UniProt P09467); conditions: background statement; cited from earlier work
T2 sequence (P09467 2-338 limits assumed): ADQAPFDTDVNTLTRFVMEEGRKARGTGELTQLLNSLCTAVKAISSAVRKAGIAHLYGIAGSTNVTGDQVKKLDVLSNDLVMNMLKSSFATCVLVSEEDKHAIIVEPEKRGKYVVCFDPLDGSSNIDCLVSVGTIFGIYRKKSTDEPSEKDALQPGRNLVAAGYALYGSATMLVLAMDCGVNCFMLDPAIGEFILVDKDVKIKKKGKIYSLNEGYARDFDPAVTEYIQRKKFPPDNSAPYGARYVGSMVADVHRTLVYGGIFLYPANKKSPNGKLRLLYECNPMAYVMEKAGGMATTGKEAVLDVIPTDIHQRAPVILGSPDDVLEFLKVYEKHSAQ

6-phosphofructo-1-kinase [3] = experiment: Activation of 6-phosphofructo-1-kinase; type: biochemical; conditions: for Ka: concentration giving half-maximal activation
Source text: (§1) Studies of Compound 2 have shown that it activates 6-phosphofructo-1-kinase (6PF1K) and inhibits fructose-1,6-bisphosphatase (FBPase). […] It is well known that by increasing the rate of glycolysis, the rate of gluconeogenesis decreases (Hanson et al. (1984) J. Biol. Chem. 259, 218-223).
Ka is the concentration of substrate giving half-maximal activation.

[4] = target: T2, Fructose-1,6-bisphosphatase; experiment: Inhibition of fructose-1,6-bisphosphatase; type: biochemical
Source text: as §1

6-phosphofructo-1-kinase [5] = conditions: background statement; cited from earlier work
FAO hepatoma cells [6] = experiment: Inhibition of glucose production in FAO cells; type: cell-based; conditions: for Percent inhibition of glucose production: FAO cells
Source text: as §1

FAO hepatoma cells [7] = conditions: background statement; cited from earlier work
[8] = tested on: INS-1 clonal pancreatic B-cells; experiment: Stimulation of insulin secretion in INS-1 cells; type: cell-based; conditions: for Insulin release greater compared to controls: 3 mM glucose, 500 μM compound, overnight; for Activating effect on insulin release, in words: 16 mM glucose
Method: INS-1 clonal pancreatic B-cells were grown in well plates or T-25 flasks incubated overnight with INS-1 cell media with 3 mM glucose and 500 μM of compound 3 or compound 4. Insulin samples were collected for 10 minutes at 18 second intervals. Insulin release was greater for both compound 3.1 and compound 4.1 compared to controls, by about 50 percent, under these conditions. At 16 mM glucose the activating effect disappeared.

Rh1, Ewing Sarcoma = experiment: Anticancer activity, Rh1; type: cell-based
[9] = target: T3, calf spleen purine nucleoside phosphorylase (Bos taurus, UniProt P55859); experiment: Inhibition of calf spleen purine nucleoside phosphorylase (cPNP); type: biochemical; conditions: for cPNP activity: 27 μM compound
T3 construct: from tissue; host or cells: calf spleen
T3 sequence (P55859 1-289): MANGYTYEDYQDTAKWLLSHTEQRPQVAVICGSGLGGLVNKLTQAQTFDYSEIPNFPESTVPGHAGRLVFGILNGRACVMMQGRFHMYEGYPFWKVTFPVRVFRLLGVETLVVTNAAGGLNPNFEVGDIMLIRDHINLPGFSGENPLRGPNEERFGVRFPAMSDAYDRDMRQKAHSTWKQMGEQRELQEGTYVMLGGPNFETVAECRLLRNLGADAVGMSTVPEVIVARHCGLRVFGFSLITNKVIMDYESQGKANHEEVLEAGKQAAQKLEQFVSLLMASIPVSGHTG
Method: Compound 4.1 (27 μM) was incubated with calf spleen purine nucleoside phosphorylase with increasing concentrations of inorganic phosphate.

HTC hepatoma cells = experiment: Inhibition of intracellular lipid synthesis in HTC hepatoma cells; type: cell-based; conditions: 500 μM; for Cholesterol: control 48; for Triglyceride: control 60

O=P(O)(O)OC1O[C@H](CI)[C@@H](O)[C@H]1O (stereo partly shown) [5-iodo-ribose-1-phosphate]
Effect on human purine nucleoside phosphorylase, in words [1]: inhibits

O=P(O)(O)CC1OC(CO)C(O)C1O (stereo not shown) [Compound 1.1, ribose-1-methylenephosphonate]
IC50 (HL-60, Leukemia): 170 µM
Blood Glucose at 120 minutes (Zucker (fa/fa) rats; 10 mg/kg IP): 460 mg/dL
Blood Glucose at 120 minutes (Zucker (fa/fa) rats; 100 mg/kg IP): 400 mg/dL
Effect on blood glucose levels, in words (Zucker (fa/fa) rats; fasted diabetic Zucker (fa/fa), injected, glucose challenge): reduce blood glucose levels

O=P(O)(O)CC1OC(COP(=O)(O)O)C(O)C1O (stereo not shown) [Compound 2.1, 5-phosphoribosyl-1-methylenephosphonate]
Ki [2]: 85 µM
Effect on 6-phosphofructo-1-kinase (6PF1K), in words (6-phosphofructo-1-kinase [3]): activates
Ka (6-phosphofructo-1-kinase [3]): 6.5 µM
Effect on fructose-1,6-bisphosphatase (FBPase), in words [4]: inhibits
Ki ([4]; At 5 μM Fru-1,6-bisphosphate): 87 µM
Maximum Decrease in Activity ([4]; At 5 μM Fru-1,6-bisphosphate): 50%
Ki ([4]; At 20 μM Fru-1,6-bisphosphate): 87 µM
Maximum Decrease in Activity ([4]; At 20 μM Fru-1,6-bisphosphate): 50%
Blood Glucose at 120 minutes (Zucker (fa/fa) rats; 10 mg/kg IP): 500 mg/dL
Blood Glucose at 120 minutes (Zucker (fa/fa) rats; 100 mg/kg IP): 500 mg/dL
Ka (6-phosphofructo-1-kinase [5]): 6.5 µM
Percent inhibition of glucose production (FAO hepatoma cells [6]; 60 μM): 20 ± 15%
Percent inhibition of glucose production (FAO hepatoma cells [6]; 100 μM (last row of the table)): 60 ± 15%
Percent inhibition of glucose production (FAO hepatoma cells [6]; 125 μM): 35 ± 10%
Percent inhibition of glucose production (FAO hepatoma cells [6]; 250 μM): 40 ± 10%
Percent inhibition of glucose production (FAO hepatoma cells [6]; 500 μM): 35 ± 10%
Glucose production in FAO hepatoma cells, in words (FAO hepatoma cells [6]; incubated with FAO hepatoma cells): inhibits glucose production
Glucose production in cultured hepatoma cells (FAO), in words (FAO hepatoma cells [7]): inhibit glucose production

CCOP(=O)(CC1OC(CO)C(O)C1O)OCC (stereo not shown) [Compound 3.1, ribose-1-methylenediethylphosphonate]
Insulin release greater compared to controls [8]: about 50%
Activating effect on insulin release, in words [8]: disappeared

O=P(O)(O)C(F)(F)C1OC(CO)C(O)C1O (stereo not shown) [Compound 4.1, ribose-1-difluoromethylenephosphonate]
Insulin release greater compared to controls [8]: about 50%
Activating effect on insulin release, in words [8]: disappeared
IC50 (Rh1, Ewing Sarcoma): 170 µM
cPNP activity ([9]; Pi 20 μM, control 170): 18* arbitrary units
cPNP activity ([9]; Pi 50 μM, control 237): 31 arbitrary units
cPNP activity ([9]; Pi 200 μM, control 298): 96 arbitrary units
cPNP activity ([9]; Pi 1500 μM, control 327): 176 arbitrary units
Mode of inhibition of cPNP, in words ([9]; 27 μM, increasing inorganic phosphate): likely a competitive inhibitor of cPNP
Cholesterol (HTC hepatoma cells): 39 μg/mg protein
Triglyceride (HTC hepatoma cells): 44 μg/mg protein
Decrease in cholesterol levels compared to control (HTC hepatoma cells; overnight): ~20%
Decrease in triglyceride levels compared to control (HTC hepatoma cells; overnight): 26%

CN(C)C(=N)N=C(N)N [Metformin, reference compound]
Blood Glucose at 120 minutes (Zucker (fa/fa) rats; 320 mg/kg IP): 400 mg/dL
Cholesterol (HTC hepatoma cells): 38 μg/mg protein
Triglyceride (HTC hepatoma cells): 42 μg/mg protein

O=P(O)(O)OC[C@H]1O[C@@](CO)(OP(=O)(O)O)[C@@H](O)[C@@H]1O [fructose-2,6-bisphosphate, reference compound]
Ka (6-phosphofructo-1-kinase [3]): 0.09 µM

O=P(O)(O)OC[C@H]1OC(OP(=O)(O)O)[C@H](O)[C@@H]1O (stereo partly shown) [ribose-1,5-bisphosphate, reference compound]
Ka (6-phosphofructo-1-kinase [3]): 3.5 µM
Ki ([4]; At 5 μM Fru-1,6-bisphosphate): 87 µM
Maximum Decrease in Activity ([4]; At 5 μM Fru-1,6-bisphosphate): 50%
Ki ([4]; At 20 μM Fru-1,6-bisphosphate): 87 µM
Maximum Decrease in Activity ([4]; At 20 μM Fru-1,6-bisphosphate): 50%
